What all share (assay type): ADME
Data set [1] is described as follows: The drug is tested on the gut metagenome community of A-04 with ENA study accession number: PRJEB31790 for biotransformation under microaerobic condition. The drug concentrations were measured over 7 timepoints collected between 0 and 12 hours of incubation by liquid-chromatography-coupled mass spectrometry (LC–MS). More on the design: dose 5 uM, timepoint 0, 0.75, 1.5, 3, 6, 9, 12 hours. To be noted: 5 µM.

A short description of data set [2]: The drug is tested on Clostridium bolteae strain: DSM15670 for biotransformation under anaerobic condition. The drug concentrations were measured over 6 timepoints collected between 0 and 12 hours of incubation by liquid-chromatography-coupled mass spectrometry (LC–MS). As to conditions: enterocloster bolteae, 5 µM. Also on record: dose 5 uM, timepoint 0, 1.5, 3, 6, 9, 12 hours.

A short description of data set [3]: The drug is tested on the gut metagenome community of A-03 with ENA study accession number: PRJEB31790 for biotransformation under anaerobic condition. The drug concentrations were measured over 7 timepoints collected between 0 and 12 hours of incubation by liquid-chromatography-coupled mass spectrometry (LC–MS). Also on record: dose 5 uM, timepoint 0, 0.75, 1.5, 3, 6, 9, 12 hours. To be noted: 5 µM.

Data set [4] can be described thus: The drug is tested on the gut metagenome community of A-02 with ENA study accession number: PRJEB31790 for biotransformation under anaerobic condition. The drug concentrations were measured over 7 timepoints collected between 0 and 12 hours of incubation by liquid-chromatography-coupled mass spectrometry (LC–MS). More on the design: dose 5 uM, timepoint 0, 0.75, 1.5, 3, 6, 9, 12 hours. As to conditions: 5 µM.

The nature of data set [5]: The drug is tested on Lactobacillus ruminis strain: ATCC25644 for biotransformation under anaerobic condition. The drug concentrations were measured over 6 timepoints collected between 0 and 12 hours of incubation by liquid-chromatography-coupled mass spectrometry (LC–MS). As to conditions: ligilactobacillus ruminis, 5 µM. More on the design: dose 5 uM, timepoint 0, 1.5, 3, 6, 9, 12 hours.

Data set [6] is described as follows: The drug is tested on Clostridium ramosum strain: DSM1402 for biotransformation under anaerobic condition. The drug concentrations were measured over 6 timepoints collected between 0 and 12 hours of incubation by liquid-chromatography-coupled mass spectrometry (LC–MS). Also on record: dose 5 uM, timepoint 0, 1.5, 3, 6, 9, 12 hours. As to conditions: thomasclavelia ramosa, 5 µM.

The nature of data set [7]: The drug is tested on the gut metagenome community of A-03 with ENA study accession number: PRJEB31790 for biotransformation under microaerobic condition. The drug concentrations were measured over 7 timepoints collected between 0 and 12 hours of incubation by liquid-chromatography-coupled mass spectrometry (LC–MS). Also on record: dose 5 uM, timepoint 0, 0.75, 1.5, 3, 6, 9, 12 hours. To be noted: 5 µM.

Data set [8] in a line: The drug is tested on Streptococcus salivarius strain: DSM20560 for biotransformation under microaerobic condition. The drug concentrations were measured over 6 timepoints collected between 0 and 12 hours of incubation by liquid-chromatography-coupled mass spectrometry (LC–MS). To be noted: 5 µM. Also on record: dose 5 uM, timepoint 0, 1.5, 3, 6, 9, 12 hours.
Data set [9] is described as follows: The drug is tested on Lactobacillus gasseri strain: DSM20243 for biotransformation under microaerobic condition. The drug concentrations were measured over 6 timepoints collected between 0 and 12 hours of incubation by liquid-chromatography-coupled mass spectrometry (LC–MS). Also on record: dose 5 uM, timepoint 0, 1.5, 3, 6, 9, 12 hours. To be noted: 5 µM.
Data set [10] is described as follows: The drug is tested on the gut metagenome community of P-01 with ENA study accession number: PRJEB31790 for biotransformation under anaerobic condition. The drug concentrations were measured over 7 timepoints collected between 0 and 12 hours of incubation by liquid-chromatography-coupled mass spectrometry (LC–MS). More on the design: dose 5 uM, timepoint 0, 0.75, 1.5, 3, 6, 9, 12 hours. To be noted: 5 µM.

The nature of data set [11]: The drug is tested on Bacteroides caccae strain: DSM19024 for biotransformation under anaerobic condition. The drug concentrations were measured over 6 timepoints collected between 0 and 12 hours of incubation by liquid-chromatography-coupled mass spectrometry (LC–MS). Also on record: dose 5 uM, timepoint 0, 1.5, 3, 6, 9, 12 hours. To be noted: 5 µM.
Data set [12] in a line: The drug is tested on Coprococcus comes strain: ATCC27758 for biotransformation under anaerobic condition. The drug concentrations were measured over 6 timepoints collected between 0 and 12 hours of incubation by liquid-chromatography-coupled mass spectrometry (LC–MS). More on the design: dose 5 uM, timepoint 0, 1.5, 3, 6, 9, 12 hours. As to conditions: 5 µM.
Data set [13] can be described thus: The drug is tested on Ruminococcus gnavus strain: ATCC29149 for biotransformation under anaerobic condition. The drug concentrations were measured over 6 timepoints collected between 0 and 12 hours of incubation by liquid-chromatography-coupled mass spectrometry (LC–MS). Also on record: dose 5 uM, timepoint 0, 1.5, 3, 6, 9, 12 hours. As to conditions: mediterraneibacter gnavus, 5 µM.

Data set [14] is described as follows: The drug is tested on Lactobacillus paracasei strain: ATCC27092 for biotransformation under anaerobic condition. The drug concentrations were measured over 6 timepoints collected between 0 and 12 hours of incubation by liquid-chromatography-coupled mass spectrometry (LC–MS). More on the design: dose 5 uM, timepoint 0, 1.5, 3, 6, 9, 12 hours. As to conditions: lacticaseibacillus paracasei, 5 µM.

Data set [15] in a line: The drug is tested on Gemella haemolysans strain: DSM107751 for biotransformation under microaerobic condition. The drug concentrations were measured over 6 timepoints collected between 0 and 12 hours of incubation by liquid-chromatography-coupled mass spectrometry (LC–MS). Also on record: dose 5 uM, timepoint 0, 1.5, 3, 6, 9, 12 hours. To be noted: 5 µM.
The nature of data set [16]: The drug is tested on the gut metagenome community of P-04 with ENA study accession number: PRJEB31790 for biotransformation under microaerobic condition. The drug concentrations were measured over 7 timepoints collected between 0 and 12 hours of incubation by liquid-chromatography-coupled mass spectrometry (LC–MS). More on the design: dose 5 uM, timepoint 0, 0.75, 1.5, 3, 6, 9, 12 hours. As to conditions: 5 µM.

Data set [17] in a line: The drug is tested on the gut metagenome community of T-01 with ENA study accession number: PRJEB31790 for biotransformation under anaerobic condition. The drug concentrations were measured over 7 timepoints collected between 0 and 12 hours of incubation by liquid-chromatography-coupled mass spectrometry (LC–MS). More on the design: dose 5 uM, timepoint 0, 0.75, 1.5, 3, 6, 9, 12 hours. As to conditions: 5 µM.

Data set [18] can be described thus: The drug is tested on Bacteroides stercoris strain: HM 1036 for biotransformation under anaerobic condition. The drug concentrations were measured over 6 timepoints collected between 0 and 12 hours of incubation by liquid-chromatography-coupled mass spectrometry (LC–MS). More on the design: dose 5 uM, timepoint 0, 1.5, 3, 6, 9, 12 hours. To be noted: 5 µM.
Data set [19] can be described thus: The drug is tested on the gut metagenome community of T-04 with ENA study accession number: PRJEB31790 for biotransformation under microaerobic condition. The drug concentrations were measured over 7 timepoints collected between 0 and 12 hours of incubation by liquid-chromatography-coupled mass spectrometry (LC–MS). As to conditions: 5 µM. Also on record: dose 5 uM, timepoint 0, 0.75, 1.5, 3, 6, 9, 12 hours.

Data set [20] is described as follows: The drug is tested on Streptococcus mitis strain: DSM12643 for biotransformation under microaerobic condition. The drug concentrations were measured over 6 timepoints collected between 0 and 12 hours of incubation by liquid-chromatography-coupled mass spectrometry (LC–MS). As to conditions: 5 µM. More on the design: dose 5 uM, timepoint 0, 1.5, 3, 6, 9, 12 hours.

Data set [21] is described as follows: The drug is tested on Bacteroides uniformis strain: DSM6597 for biotransformation under anaerobic condition. The drug concentrations were measured over 6 timepoints collected between 0 and 12 hours of incubation by liquid-chromatography-coupled mass spectrometry (LC–MS). More on the design: dose 5 uM, timepoint 0, 1.5, 3, 6, 9, 12 hours. As to conditions: 5 µM.

Data set [22] in a line: The drug is tested on Bacteroides fragilis strain: DSM2151 for biotransformation under anaerobic condition. The drug concentrations were measured over 6 timepoints collected between 0 and 12 hours of incubation by liquid-chromatography-coupled mass spectrometry (LC–MS). More on the design: dose 5 uM, timepoint 0, 1.5, 3, 6, 9, 12 hours. As to conditions: 5 µM.
Data set [23] can be described thus: The drug is tested on Streptococcus salivarius strain: DSM20560 for biotransformation under anaerobic condition. The drug concentrations were measured over 6 timepoints collected between 0 and 12 hours of incubation by liquid-chromatography-coupled mass spectrometry (LC–MS). Also on record: dose 5 uM, timepoint 0, 1.5, 3, 6, 9, 12 hours. To be noted: 5 µM.

Consider 3 compounds from ChEMBL document CHEMBL5724806, “Unraveling interindividual differences and functional consequences of gut microbial metabolism of immunosuppressants” (2024).

For the compound `CC(C)NCC(O)COc1ccc(CC(N)=O)cc1` (centres undefined) [ATENOLOL], the “Bacterial Biotransformation” value in data set [1], in [2], in [3], in data set [4], in [5] and in [6] was “Compound NOT metabolized” in each case. Further, the “Bacterial Biotransformation” value in [7], in data set [8], in data set [9], in data set [10], in data set [11] and in data set [12] was “Compound NOT metabolized” throughout. In addition, the “Bacterial Biotransformation” value in data set [13], in [14], in data set [15], in data set [16], in data set [17] and in [18] was “Compound NOT metabolized” each time. Besides, the “Bacterial Biotransformation” value in data set [19], in data set [20], in data set [21], in data set [22] and in [23] was “Compound NOT metabolized” in each case.

Turning to `Cn1cnc([N+](=O)[O-])c1Sc1ncnc2nc[nH]c12` [AZATHIOPRINE], the “Bacterial Biotransformation” value is “Compound metabolized” in data set [1]; “Compound NOT metabolized” in data set [2]; “Compound metabolized” in data set [3]; “Compound metabolized” in data set [4]; “Compound NOT metabolized” in data set [5]; “Compound metabolized” in [6]. For the same compound, the “Bacterial Biotransformation” value in [7] was “Compound metabolized”; in data set [8] it was “Compound metabolized”; in data set [9] it was “Compound NOT metabolized”; in [10] it was “Compound metabolized”; in data set [11], “Compound metabolized”; in data set [12], “Compound metabolized”. The “Bacterial Biotransformation” value in data set [13] was “Compound metabolized”; in data set [14], “Compound metabolized”; in [15] it was “Compound NOT metabolized”; in data set [16], “Compound NOT metabolized”; in data set [17], “Compound metabolized”; in data set [18], “Compound metabolized”. The “Bacterial Biotransformation” value in data set [19] is “Compound NOT metabolized”; in [20] it was “Compound NOT metabolized”; in [21], “Compound metabolized”; in data set [22], “Compound metabolized”; in [23] it was “Compound metabolized”.

As to `C[C@H]1C[C@H]2[C@@H]3CCC4=CC(=O)C=C[C@]4(C)[C@@]3(F)[C@@H](O)C[C@]2(C)[C@@]1(O)C(=O)CO` [BETAMETHASONE], the “Bacterial Biotransformation” value in data set [1] was “Compound metabolized”; in data set [2] it was “Compound NOT metabolized”; in data set [3], “Compound metabolized”; in data set [4], “Compound metabolized”; in [5], “Compound NOT metabolized”; in data set [6] it was “Compound NOT metabolized”. Moreover, the “Bacterial Biotransformation” value in data set [7], in [8], in data set [9], in data set [10], in data set [11] and in data set [12] was “Compound NOT metabolized” throughout. The “Bacterial Biotransformation” value in data set [13], in data set [14], in data set [15], in data set [16], in data set [17] and in data set [18] was “Compound NOT metabolized” throughout. Moreover, the “Bacterial Biotransformation” value in data set [19], in data set [20], in data set [21], in data set [22] and in [23] was “Compound NOT metabolized” in each case.
